Laboratory results taken from US12065428B2, “Anti-viral compounds” (Aligos Therapeutics, Inc., priority 2021, dated 2024).
Where two headings read alike, the source gives them in different places.

Tests used:
[1] = target: T1, SARS-Cov-2 3CLpro (Severe acute respiratory syndrome coronavirus 2, UniProt P0DTD1); experiment: SARS-Cov-2 3CLpro and HRV3C duplex assay (SAMDI-MS): 3CLpro; format: biochemical; settings: 3CLpro, duplex assay, 30 mins preincubation; class symbols; read-out: SARS-Cov-2 IC50
T1 construct: SARS-Cov-2 3CLpro and HRV3C Duplex Assay

[2] = system: SARS-CoV-2-GHB-03021/2020; experiment: microbe, parasite or virus in culture; format: cell-based; settings: Severe acute respiratory syndrome coronavirus 2, Vero C1008, 96 h; read-out: VeroE6 + CP (EC50)
[3] = target: T2, human cathepsin L (Homo sapiens, UniProt P07711); experiment: Cathepsin L assay (Z-FR-AMC fluorescence); format: biochemical; settings: 10 pM human cathepsin L, 30 mins preincubation; class symbols
T2 construct: purchased R&D Systems
T2 sequence (P07711 114-333): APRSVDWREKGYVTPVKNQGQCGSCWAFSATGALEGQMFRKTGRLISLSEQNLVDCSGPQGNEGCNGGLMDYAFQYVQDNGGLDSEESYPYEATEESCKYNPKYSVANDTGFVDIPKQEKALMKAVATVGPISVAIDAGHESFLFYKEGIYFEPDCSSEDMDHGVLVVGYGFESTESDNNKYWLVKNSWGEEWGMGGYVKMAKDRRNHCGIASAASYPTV
Method in brief: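 Human cathepsin L at 10 pM was preincubated 30 min with compound, then reaction started with Z-FR-AMC (2 μM final). Fluorescence (355/460 nm) read every 2 min for 30 min; IC50 from four-parameter curve fit.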

[4] = target: T3, HRV3C (Human rhinovirus 14, UniProt P03303); experiment: biochemical; settings: read-out: HRV IC50
T3 construct: SARS-Cov-2 3CLpro and HRV3C Duplex Assay
T3 sequence (P03303 1538-1719): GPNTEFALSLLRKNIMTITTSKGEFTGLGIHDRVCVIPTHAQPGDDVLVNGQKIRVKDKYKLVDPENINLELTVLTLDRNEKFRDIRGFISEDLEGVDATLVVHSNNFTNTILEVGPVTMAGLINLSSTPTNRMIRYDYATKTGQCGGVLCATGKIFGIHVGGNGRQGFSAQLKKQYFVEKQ

[5] = system: human beta-coronavirus OC43; experiment: OC43 coronavirus assay in HeLa cells (cytopathic effect, cell-titer-glo); format: cell-based
[6] = Cytotoxicity plates without OC43 virus in HeLa cells; format: cell-based; settings: human, HeLa cells (uninfected)
Method in brief: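 HeLa cells pretreated 4 h with serially diluted compounds, then infected with OC43 at a dose giving 80-90% viability loss and incubated 6 days at 33 °C. Viability by CellTiter-Glo luminescence; EC50 from four-parameter fit of CPE inhibition. Uninfected parallel plates gave cytotoxicity.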

[7] = system: SARS-CoV-2; settings: cited from earlier work
[8] = target: 3CLpro (Severe acute respiratory syndrome coronavirus 2, UniProt P0DTD1); settings: cited from earlier work
[9] = HRV3C, duplex assay, 30 mins preincubation, class symbols
[10] = Betacoronavirus 1, 144 h, OC43 in HeLa cells, 6 days at 33° C., class symbols, read-out: EC50

SMILES | IC50 [1] [nM] | EC50 [2] [nM] | IC50 [3] [nM] | IC50 [4, 9] [nM] | EC50 [5, 10] [nM] | CC50 at 6 days ([6]; class symbols) [nM] | IC50 [4] [nM] | EC50 ([5]; Betacoronavirus 1, OC43, HeLa) [nM] | IC50 ([4]; HRV3C, duplex assay, numeric bound: >10 indicates an IC50>10000 nM) [nM] | CC50 at 6 days ([6]; numeric bound, unit inferred) [nM] | antiviral effect when TMPRSS2 was expressed ([7]; A549-ACE2 expressing TMPRSS2 (Steuten et al.)) | inhibition of SARS-CoV-2 ([7]; VeroE6, A549-ACE2 and/or HeLa-ACE2 (Mellott et al.)) | inhibitory effect on the 3CLpro [8]
O=C(NC1CC1)C(=O)[C@H](C[C@@H]1CCNC1=O)NC(=O)[C@@H]1CC2(CCN1C(=O)C1Cc3ccccc3C1)CC2 [Example 6, (S)—N—((S)-4-(cyclopropylamino)-3,4-dioxo-1-((S)-2-oxopyrrolidin-3-yl)butan-2-yl)-6-(2,3-dihydro-1H-indene-2-carbonyl)-6-azaspiro[2.5]octane-5-carboxamide] | 20 to 200 | < 1000 | ≥ 10000 | 200 to 2000 | 100 to 1000 | ≥ 100000 |  |  |  |  |  |  | 
Cn1nc2ccccc2c1C(=O)N1CCC2(CC2)C[C@H]1C(=O)N[C@@H](C[C@@H]1CCNC1=O)C(=O)C(=O)NC1CC1 [Example 7] | < 20 | 1000 to 10000 | 1000 to 10000 | 200 to 2000 | 100 to 1000 | ≥ 100000 |  |  |  |  |  |  | 
O=C(NC1CC1)C(=O)[C@H](C[C@@H]1CCNC1=O)NC(=O)[C@@H]1CC2(CCN1C(=O)c1cc3ccccc3n1C1CC1)CC2 [Example 8] | < 20 | < 1000 | ≥ 10000 | 2000 to 20000 | 100 to 1000 | ≥ 100000 |  |  |  |  |  |  | 
O=C(NC1CC1)C(=O)[C@H](C[C@@H]1CCNC1=O)NC(=O)[C@@H]1CC2(CCN1C(=O)c1cc3ccccn3n1)CC2 [Example 9] | 200 to 2000 | 1000 to 10000 | ≥ 10000 | 2000 to 20000 | 1000 to 10000 | ≥ 100000 |  |  |  |  |  |  | 
Cn1nc(C(=O)N2CCC3(CC3)C[C@H]2C(=O)N[C@@H](C[C@@H]2CCNC2=O)C(=O)C(=O)NC2CC2)c2ccccc21 [Example 10] | 20 to 200 | 1000 to 10000 | ≥ 10000 | 200 to 2000 | 1000 to 10000 | ≥ 100000 |  |  |  |  |  |  | 
Cn1cc(C(=O)N2CCC3(CC3)C[C@H]2C(=O)N[C@@H](C[C@@H]2CCNC2=O)C(=O)C(=O)NC2CC2)c2ccccc21 [Example 11] | 20 to 200 | 1000 to 10000 | 1000 to 10000 | < 20 | 1000 to 10000 | ≥ 100000 |  |  |  |  |  |  | 
O=C(NC1CC1)C(=O)C(C[C@@H]1CCNC1=O)NC(=O)[C@@H]1CC2(CCN1C(=O)c1cc3cccc(Cl)c3s1)CC2 (stereo partly drawn) [Example 12, (5S)-6-(7-chlorobenzo[b]thiophene-2-carbonyl)-N-(4-(cyclopropylamino)-3,4-dioxo-1-((S)-2-oxopyrrolidin-3-yl)butan-2-yl)-6-azaspiro[2.5]octane-5-carboxamide] | < 20 | < 1000 | 1000 to 10000 | 20 to 200 | 100 to 1000 | 10000 to 100000 |  |  |  |  |  |  | 
CN1CCN(c2ccc(C(=O)N3CCC4(CC4)C[C@H]3C(=O)N[C@@H](C[C@@H]3CCNC3=O)C(=O)C(=O)NC3CC3)cc2)CC1 [Example 13, (3S)—N-cyclopropyl-3-{[(5S)-6-[4-(4-methylpiperazin-1-yl)benzoyl]-6-azaspiro[2.5]octan-5-yl]formamido}-2-oxo-4-[(3S)-2-oxopyrrolidin-3-yl]butanamide] | 200 to 2000 | > 50000 | 1000 to 10000 |  |  | ≥ 100000 | > 10000 | > 10000 |  |  |  |  | 
N#C[C@H](C[C@@H]1CCNC1=O)NC(=O)[C@@H]1CC2(CCN1C(=O)c1ncc(-c3ccccc3)s1)CC2 [Example 52, (S)—N—((S)-1-cyano-2-((S)-2-oxopyrrolidin-3-yl)ethyl)-6-(5-phenylthiazole-2-carbonyl)-6-azaspiro[2.5]octane-5-carboxamide] | 200 to 2000 | 10000 to 100000 | ≥ 10000 |  |  |  |  | > 10000 | > 10000 | > 100000 |  |  | 
CN1CCN(C(=O)N[C@@H](Cc2ccccc2)C(=O)N[C@H](/C=C/S(=O)(=O)c2ccccc2)CCc2ccccc2)CC1 [Example K117777] |  |  |  |  |  |  |  |  |  |  | abolished | potent inhibition | lacks an inhibitory effect
